In US20140037719A1, “STABILIZED PHARMACEUTICAL FORMULATIONS OF A POTENT HCV INHIBITOR” (Robert Majeska, priority 2012, published 2014):

Test: Ames test / genotoxicity of degradation product
Format: cell-based

Q: With C=C[C@@H]1C[C@]1(N)C(=O)O [Compound X] as the compound, how does the Ames result read?
A: The Ames result was “Ames positive”.

Q: And the genotoxicity?
A: Its genotoxicity is “genotoxic”.
